The record followed here is article PMC11979885, “Mechanistic Investigation into the Phase Separation Behavior of Soluplus in the Presence of Biorelevant Media” (Molecular Pharmaceutics, 2025).

Values after ≈ are worked out from the molar mass of the structure shown. Like-named read-outs stand apart in the source and are kept apart here.

Format in all cases: physicochemical
Data set [1] in a line: Equilibrium solubility of crystalline RO6897779 in FaSSIF-V1 with and without Soluplus. As to the method: The solubility of RO6897779 was determined in FaSSIF-V1 and in the presence of previously outlined Soluplus concentrations dissolved in FaSSIF-V1 to determine the apparent degree of supersaturation induced during solvent shift experiments. Samples were prepared by adding an excess amount of RO6897779 (≈5 mg) to 3 mL of the excipient solutions, or neat FaSSIF-V1 medium, and were stirred at 250 rpm at 37 °C (Mixdrive 15, 2MAG, München, Germany). Samples were equilibrated for 48 h. Solid–liquid separation was conducted by centrifugation at 11,500 g for 5 min using Ultrafree centrifugal units. The supernatant was immediately diluted with a 1:1 (v/v) mixture of acetonitrile and deionized water to fall into the linear region of the calibration curve during high-performance liquid chromatography (HPLC), as described under HPLC drug quantification below.
(§1) RO6897779 was quantified using reversed-phase HPLC. An Agilent 1200 series HPLC system (Agilent Technologies Inc., US) equipped with an Agilent Eclipse Plus C18 column (5 μm, 4.6 mm × 150 mm) was used for sample separation. Detection and quantification of RO6897779 were performed by using a variable wavelength detector set to 214 nm. The mobile phase consisted of (A) HPLC-grade deionized water and (B) and acetonitrile both containing 0.1% [v/v] formic acid. […] Data analysis was conducted using Agilent’s OpenLab CDS software Version 2.6.

Data set [2] in a line: Solvent shift supersaturation kinetics of RO6897779 in Soluplus solutions in FaSSIF-V1. To be noted: for apparent degree of supersaturation (aDS) induced: nominal 1 mg mL^–1 drug, FaSSIF-V1, 37 °C. Here is the method: Solvent shift experiments were conducted in the Pion microDISS Profiler to assess the supersaturation kinetics of RO6897779 in the presence of Soluplus dissolved in FaSSIF-V1. […] Supersaturation kinetics were assessed at D/P ratios of 10, 20, 30, and 40% corresponding to the polymer concentrations outlined previously. The polymer was dissolved in FaSSIF-V1 at RT and subsequently heated to 37 °C. A concentrated DMSO stock solution was prepared at a concentration of 50 mg mL^–1 RO6897779. From this stock solution, an aliquot of 400 μL was spiked into 19.6 mL of preheated solvent shift medium, so that a nominal concentration of 1 mg mL^–1 RO6897779 was obtained without exceeding DMSO concentrations of 2% [v/v], while assuming a negligible residual solvent influence on solubility.[40] The solutions were stirred at 250 rpm and the temperature was maintained at 37 °C and continuously monitored. At time points of 5, 15, 30, 60, 120, 180, and 240 min, 2 × 200 μL aliquots were withdrawn. […] Subsequently, the supernatant of the media was diluted appropriately with an acetonitrile–water mixture. An intermission of 30 min was introduced as a change in Soluplus phase behavior was expected once the sample reached RT. It was assumed that this intermission would lead to a difference in the sampled concentration of RO6897779.
as §1

The nature of data set [3]: DSC glass forming ability / crystallization tendency classification. To be noted: classification according to Baird et al. Here is the method: The manufactured spray-dried dispersion as well as the neat crystalline drug was investigated in triplicate using DSC to detect the presence of crystalline material and to gain information about the glass transition temperature (Tg) of the materials. For this purpose, a DSC 1 Star system instrument from Mettler-Toledo AG (Greifensee, Switzerland) was used. The instrument was calibrated for temperature and heat flow using indium, and the analysis was performed with an air flow rate of 150 mL min^–1. Samples were weighed into 40 μL aluminum pans (Mettler-Toledo AG, Greifensee, CH), sealed with pierced aluminum lids, and placed into the DSC. The analysis of the spray-dried dispersion was carried out as a heating cycle which heated the sample from RT to 190 °C at 10 K min^–1, followed by cooling down to −50 °C at −20 K min^–1 and finally reheating to 190 °C at 10 K min^–1. The analysis of the neat crystalline drug was carried out according to Baird et al.,[36] to evaluate the glass forming ability of the drug. The second heating ramp was used to measure the Tg without the influence of evaporating moisture.

As usually defined, the solubility is how much of the substance goes into solution per volume. Take `O=C(OCc1ccc(OC(F)(F)F)cc1)N1C[C@@H]2CN(C(=O)c3ccc4[nH]nnc4c3)C[C@H]2C1` [RO6897779]: the solubility at 48 h in data set [1] (FaSSIF-V1, 37 °C, fassif, thermodynamic from solid, Form I, pH = 6.5 ± 0, read-out: solubility in FaSSIF-V1) turned out to be 0.0229 mg/mL (≈ 48.2 µM); in data set [1] (FaSSIF-V1 with Soluplus 1.50 mg mL^–1, aqueous with cosolvent or surfactant or cyclodextrin, thermodynamic from solid, FaSSIF-V1, Soluplus 1.50 mg mL^–1 (D/P 40%), 48 h, 37 °C, read-out: solubility), 0.069 mg/mL (≈ 145 µM); in data set [1] (FaSSIF-V1 with Soluplus 2.33 mg mL^–1, aqueous with cosolvent or surfactant or cyclodextrin, thermodynamic from solid, FaSSIF-V1, Soluplus 2.33 mg mL^–1 (D/P 30%), 48 h, 37 °C, read-out: solubility) it was 0.0962 mg/mL (≈ 202 µM); in data set [1] (FaSSIF-V1 with Soluplus 4.00 mg mL^–1, aqueous with cosolvent or surfactant or cyclodextrin, thermodynamic from solid, FaSSIF-V1, Soluplus 4.00 mg mL^–1 (D/P 20%), 48 h, 37 °C, read-out: solubility), 0.13 mg/mL (≈ 274 µM); in data set [1] (FaSSIF-V1 with Soluplus 9.00 mg mL^–1, aqueous with cosolvent or surfactant or cyclodextrin, thermodynamic from solid, FaSSIF-V1, Soluplus 9.00 mg mL^–1 (D/P 10%), 48 h, 37 °C, read-out: solubility), 0.215 mg/mL (≈ 452 µM); in data set [1] (pH 6.5, thermodynamic from solid, neat FaSSIF-V1, Soluplus 0.00 mg mL^–1 (D/P 100%), 48 h, 37 °C, read-out: solubility) it was 0.0229 mg/mL (≈ 48.2 µM). The “apparent degree of supersaturation (aDS) induced” value in data set [2] (D/P 10%) is given as 4.65; in data set [2] (D/P 20%), 7.7; in data set [2] (D/P 30%), 10.4; in data set [2] (D/P 40%), 14.5. In addition, in data set [2] (D/P 20%, FaSSIF-V1, after immediate centrifugation and after cooling to RT), the “sampled drug concentration in solvent shift experiment” value is recorded as 150–170 μg mL^–1. In addition, the crystallization tendency result in data set [3] was “class III”.
